Assay results as given in patent publication US9795140B2, “Molecules having pesticidal utility, and intermediates, compositions, and processes, related thereto” (priority 2015, dated 2017).

Key:
Assay type in all cases: in vivo
[1] = tested on: Beet Armyworm (Spodoptera exigua, LAPHEG); assay: Bioassay on Beet Armyworm (BAW), 128-well diet tray assay; conditions: 168 h, 50 μg/cm^2 on artificial diet, second instar larvae, 25° C., five to seven days, average of eight wells, read-out: BAW % Control (or Mortality) rating
Procedure: (§1) Certain molecules disclosed in this document were tested against BAW and CL using procedures described in the following examples. In the reporting of the results, the “BAW & CL Rating Table” was used (See Table Section).
Bioassays on BAW were conducted using a 128-well diet tray assay. One to five second instar BAW larvae were placed in each well (3 mL) of the diet tray that had been previously filled with approximately 1.5 mL of artificial diet to which 50 μg/cm^2 of the test molecule (dissolved in 50 μL of 90:10 acetone-water mixture) had been applied (to each of eight wells) and then allowed to dry. Trays were covered with a clear self-adhesive cover, vented to allow gas exchange, and held at 25° C., 14:10 light-dark for five to seven days. Percent mortality was recorded for the larvae in each well; activity in the eight wells was then averaged. The results are indicated in the table entitled “Table ABC: Biological Results” (See Table Section).

[2] = tested on: Cabbage Looper (Trichoplusia ni, TRIPNI); assay: Bioassay on Cabbage Looper (CL), 128-well diet tray assay; conditions: 168 h, 50 μg/cm^2 on artificial diet, second instar larvae, 25° C., five to seven days, average of eight wells, read-out: CL % Control (or Mortality) rating
Procedure: as §1
Bioassays on CL were conducted using a 128-well diet tray assay, one to five second instar CL larvae were placed in each well (3 mL) of the diet tray that had been previously filled with 1 mL of artificial diet to which 50 μg/cm^2 of the test molecule (dissolved in 50 μL of 90:10 acetone-water mixture) had been applied (to each of eight wells) and then allowed to dry. Trays were covered with a clear self-adhesive cover, vented to allow gas exchange, and held at 25° C., 14:10 light-dark for five to seven days. Percent mortality was recorded for the larvae in each well; activity in the eight wells was then averaged. The results are indicated in the table entitled “Table ABC: Biological Results” (See Table Section).

[3] = tested on: Yellow Fever Mosquito (Aedes aegypti, AEDSAE); assay: Bioassay on Yellow Fever Mosquito (YFM) larvae, 96-well plate; conditions: about 1 day-old larvae, room temperature, 3 days, scored on mortality
Procedure: Certain molecules disclosed in this document were tested against YFM using procedures described in the following paragraph. In the reporting of the results, the “GPA & YFM Rating Table” was used (See Table Section).
Master plates containing 400 μg of a molecule dissolved in 100 μL of dimethyl sulfoxide (DMSO) (equivalent to a 4000 ppm solution) are used. A master plate of assembled molecules contains 15 μL per well. To this plate, 135 μL of a 90:10 water/acetone mixture is added to each well. A robot is programmed to dispense 15 μL aspirations from the master plate into an empty 96-well shallow plate (“daughter” plate). There are 6 reps (“daughter” plates) created per master. The created “daughter” plates are then immediately infested with YFM larvae.
The day before plates are to be treated, mosquito eggs are placed in Millipore water containing liver powder to begin hatching (4 g. into 400 mL). After the “daughter” plates are created using the robot, they are infested with 220 μL of the liver powder/larval mosquito mixture (about 1 day-old larvae). After plates are infested with mosquito larvae, a non-evaporative lid is used to cover the plate to reduce drying. Plates are held at room temperature for 3 days prior to grading. After 3 days, each well is observed and scored based on mortality. The results are indicated in the table entitled “Table ABC: Biological Results” (See Table Section).

CC(NC(=O)c1cc(NC(=O)[C@H]2[C@H](c3cc(Cl)cc(Cl)c3)C2(Cl)Cl)ccc1Cl)c1ccc(F)cc1 (relative stereo) [F96, 2-chloro-5-(trans-2,2-dichloro-3-(3,5-dichlorophenyl)cyclopropane-1-carboxamido)-N-(1-(4-fluorophenyl)ethyl)benzamide]
mortality at 50 µg/cm2 [1]: 50 to 100%
mortality at 50 µg/cm2 [2]: 50 to 100%
YFM % Control (or Mortality) rating [3]: A (80-100)

O=C(NCCc1nccs1)c1cc(NC(=O)[C@H]2[C@H](c3cc(Cl)cc(Cl)c3)C2(Cl)Cl)ccc1Cl (relative stereo) [PF12, trans-2-Chloro-5-(2,2-dichloro-3-(3,5-dichlorophenyl)cyclopropane-1-carboxamido)-N-(2-(thiazol-2-yl)ethyl)benzamide]
mortality at 50 µg/cm2 [1]: 50 to 100%
mortality at 50 µg/cm2 [2]: 50 to 100%
YFM % Control (or Mortality) rating [3]: A (80-100)

O=C(NCC(F)(F)F)c1cc(NC(=O)[C@H]2[C@H](c3cc(Cl)cc(Cl)c3)C2(Br)Br)ccc1Cl (relative stereo) [PF1, trans-2-Chloro-5-(2,2-dibromo-3-(3,5-dichlorophenyl)cyclopropane-1-carboxamido)-N-(2,2,2-trifluoroethyl)benzamide]
mortality at 50 µg/cm2 [1]: 50 to 100%
mortality at 50 µg/cm2 [2]: 50 to 100%
YFM % Control (or Mortality) rating [3]: D (No activity noticed in this bioassay)

O=C(NCC(F)(F)F)c1cc(NC(=O)[C@H]2[C@H](c3ccc(C(F)F)c(Cl)c3)C2(Cl)Cl)ccc1Cl (relative stereo) [F132, 2-Chloro-5-(trans-2,2-dichloro-3-(3-chloro-4-(difluoromethyl)phenyl)cyclopropane-1-carboxamido)-N-(2,2,2-trifluoroethyl)benzamide]
mortality at 50 µg/cm2 [1]: 50 to 100%
mortality at 50 µg/cm2 [2]: 50 to 100%
YFM % Control (or Mortality) rating [3]: A (80-100)

C[C@H](CSCCC(F)(F)F)NC(=O)c1cc(NC(=O)C2C(c3cc(Cl)cc(Cl)c3)C2(Cl)Cl)ccc1Cl (stereo in doubt) [PF2, trans-2-Chloro-5-(2,2-dichloro-3-(3,5-dichlorophenyl)cyclopropane-1-carboxamido)-N—((R)-1-((3,3,3-trifluoropropyl)thio)propan-2-yl)benzamide]
mortality at 50 µg/cm2 [1]: 50 to 100%
mortality at 50 µg/cm2 [2]: 50 to 100%
YFM % Control (or Mortality) rating [3]: A (80-100)

COCCOCCCNC(=O)c1cc(NC(=O)[C@H]2[C@H](c3cc(Cl)cc(Cl)c3)C2(Cl)Cl)ccc1Cl (relative stereo) [F58, trans-2-Chloro-5-(2,2-dichloro-3-(3,5-dichlorophenyl)cyclopropane-1-carboxamido)-N-(3-(2-methoxyethoxy)propyl)benzamide]
mortality at 50 µg/cm2 [1]: 50 to 100%
mortality at 50 µg/cm2 [2]: 50 to 100%
YFM % Control (or Mortality) rating [3]: A (80-100)

CCCNC(=O)c1cc(NC(=O)[C@H]2[C@H](c3cc(Cl)c(OC)c(Cl)c3)C2(Cl)Cl)ccc1Cl (relative stereo) [F84, trans-2-Chloro-5-(2,2-dichloro-3-(3,5-dichloro-4-methoxyphenyl)cyclopropane-1-carboxamido)-N-propylbenzamide]
mortality at 50 µg/cm2 [1]: 50 to 100%
mortality at 50 µg/cm2 [2]: 50 to 100%
YFM % Control (or Mortality) rating [3]: D (No activity noticed in this bioassay)

O=C(NCC(F)(F)F)c1cc(NC(=O)[C@H]2[C@H](c3ccc(C(F)(F)F)c(Cl)c3)C2(Cl)Cl)ccc1Cl (relative stereo) [F116, 2-Chloro-5-(trans-2,2-dichloro-3-(3-chloro-4-(trifluoromethyl)phenyl)cyclopropane-1-carboxamido)-N-(2,2,2-trifluoroethyl)benzamide]
mortality at 50 µg/cm2 [1]: 50 to 100%
mortality at 50 µg/cm2 [2]: 50 to 100%
YFM % Control (or Mortality) rating [3]: A (80-100)

O=C(NCC(F)(F)F)c1cc(NC(=O)[C@H]2[C@H](c3ccc(C(F)(F)F)c(F)c3)C2(Cl)Cl)ccc1Cl (relative stereo) [F112, 2-Chloro-5-(trans-2,2-dichloro-3-(3-fluoro-4-(trifluoromethyl)phenyl)cyclopropane-1-carboxamido)-N-(2,2,2-trifluoroethyl)benzamide]
mortality at 50 µg/cm2 [1]: 50 to 100%
mortality at 50 µg/cm2 [2]: 50 to 100%
YFM % Control (or Mortality) rating [3]: A (80-100)

O=C(NCC(F)(F)F)c1cc(NC(=O)[C@H]2[C@H](c3cc(Br)cc(C(F)(F)F)c3)C2(Cl)Cl)ccc1Cl (relative stereo) [F124, 5-(trans-3-(3-Bromo-5-(trifluoromethyl)phenyl)-2,2-dichlorocyclopropane-1-carboxamido)-2-chloro-N-(2,2,2-trifluoroethyl)benzamide]
mortality at 50 µg/cm2 [1]: 50 to 100%
mortality at 50 µg/cm2 [2]: 50 to 100%
YFM % Control (or Mortality) rating [3]: A (80-100)

CCCNC(=O)c1cc(NC(=O)[C@H]2[C@H](c3cc(Cl)cc(Cl)c3)C2(Cl)Cl)c(Cl)cc1Cl (relative stereo) [F101, trans-2,4-Dichloro-5-(2,2-dichloro-3-(3,5-dichlorophenyl)cyclopropane-1-carboxamido)-N-propylbenzamide]
mortality at 50 µg/cm2 [1]: 0%
mortality at 50 µg/cm2 [2]: 0%
YFM % Control (or Mortality) rating [3]: D (No activity noticed in this bioassay)

COc1c(Cl)cc([C@H]2[C@H](C(=O)Nc3ccc(Cl)c(C(=O)NCCF)c3)C2(Cl)Cl)cc1Cl (relative stereo) [F86, trans-2-Chloro-5-(2,2-dichloro-3-(3,5-dichloro-4-methoxyphenyl)cyclopropane-1-carboxamido)-N-(2-fluoroethyl)benzamide]
mortality at 50 µg/cm2 [1]: 50 to 100%
mortality at 50 µg/cm2 [2]: 50 to 100%
YFM % Control (or Mortality) rating [3]: B (More than 0-Less than 80)

O=C(NCCC(F)(F)F)c1cc(NC(=O)[C@H]2[C@H](c3cc(Cl)cc(Cl)c3)C2(Cl)Cl)c(Cl)cc1Cl (relative stereo) [F102, trans-2,4-Dichloro-5-(2,2-dichloro-3-(3,5-dichlorophenyl)cyclopropane-1-carboxamido)-N-(3,3,3-trifluoropropyl)benzamide]
mortality at 50 µg/cm2 [1]: 0 to 50%
mortality at 50 µg/cm2 [2]: 0%
YFM % Control (or Mortality) rating [3]: A (80-100)

O=C(NCC(F)(F)F)c1cc(NC(=O)[C@H]2[C@H](c3cc(F)cc(C(F)F)c3)C2(Cl)Cl)ccc1Cl (relative stereo) [F130, 2-Chloro-5-(trans-2,2-dichloro-3-(3-(difluoromethyl)-5-fluorophenyl)cyclopropane-1-carboxamido)-N-(2,2,2-trifluoroethyl)benzamide]
mortality at 50 µg/cm2 [1]: 50 to 100%
mortality at 50 µg/cm2 [2]: 50 to 100%
YFM % Control (or Mortality) rating [3]: A (80-100)

O=C(NCC(F)(F)F)c1cc(NC(=O)[C@H]2[C@H](c3cccc(C(F)F)c3)C2(Cl)Cl)ccc1Cl (relative stereo) [F134, 2-Chloro-5-(trans-2,2-dichloro-3-(3-(difluoromethyl)phenyl)cyclopropane-1-carboxamido)-N-(2,2,2-trifluoroethyl)benzamide]
mortality at 50 µg/cm2 [1]: 50 to 100%
mortality at 50 µg/cm2 [2]: 50 to 100%
YFM % Control (or Mortality) rating [3]: A (80-100)

O=C(NCC(F)(F)F)c1cc(NC(=O)[C@H]2[C@H](c3cc(Cl)cc(C(F)F)c3)C2(Cl)Cl)ccc1Cl (relative stereo) [F128, 2-Chloro-5-(trans-2,2-dichloro-3-(3-chloro-5-(difluoromethyl)phenyl)cyclopropane-1-carboxamido)-N-(2,2,2-trifluoroethyl)benzamide]
mortality at 50 µg/cm2 [1]: 50 to 100%
mortality at 50 µg/cm2 [2]: 50 to 100%
YFM % Control (or Mortality) rating [3]: A (80-100)

CN(CC1CC(F)(F)C1)C(=O)c1cc(NC(=O)[C@H]2[C@H](c3cc(Cl)cc(Cl)c3)C2(Cl)Cl)ccc1Cl (relative stereo) [F73, trans-2-Chloro-5-(2,2-dichloro-3-(3,5-dichlorophenyl)cyclopropane-1-carboxamido)-N-((3,3-difluorocyclobutyl)methyl)-N-methylbenzamide]
mortality at 50 µg/cm2 [1]: 50 to 100%
mortality at 50 µg/cm2 [2]: 50 to 100%
YFM % Control (or Mortality) rating [3]: A (80-100)
